Patent US4735953A, “Pharmaceutical preparation for learning stimulation and memory improvement” (priority 1986, dated 1988)
Where a name gives a salt, the structure may show the parent alone.

Experiments:
[1] = test system: learning ability of rats preliminarily sorted out for poor learning ability; test: Active avoidance learning in a shuttle chamber, rats sorted out for poor learning ability; format: in vivo, rat; details: poorly learning rats
Source text: (§1) In these experiments rats are taught to avoid an electric shock by escaping into a next chamber communicating with the first chamber by means of a special opening--a door. An electric current is applied to the chamber door consisting of metal plates. A conditional irritator is a light signal together with a sound click. The learning series consisted of 50 combinations. The number of combinations necessary for the animal's learning to escape into another chamber in response to the conditional signal was determined. Five correct responses out of 6 where regarded as the proof of stability of the acquired knowledge and were denoted as a "learning criterion". After 7 days the educational procedure was repeated, and again the number of combinations necessary to acquire the "learning criterion" was determined. In the case of difference between the first and second readings the percentage of retention of the acquired knowledge was calculated.
(§2) In this experiment the effect of the preparation according to the present invention and prior art preparations was separately evaluated for the purpose of comparison on well-learning and on specially selected poorly learning rats. […] To the poorly learning rats the animals were assigned which reached no "learning criterion" in the teaching series of 50 combinations, or, in other words, a stable knowledge of active avoidance was not worked out in them. […] The preparation according to the present invention and the prior art comparison preparations were administered before the first teaching series or thereafter.
(§3) Also studied were the effects produced upon a single and repeated administration of the preparation according to the present invention for 14 days.

[2] = test system: learning ability of mice in a shuttle chamber; test: Learning ability of mice in a shuttle chamber; format: in vivo, mouse; details: mice
[3] = test system: cerebral cortex of rabbits; test: Asymmetry factor by induced potential in the hearing zone of the cerebral cortex; format: in vivo, rabbit
Procedure: (§4) In the third series of experiments the effect of the preparation according to the present invention on the functional brain asymmetry was studied. The experiments were carried out on rabbits with electrodes implanted in the brain. The electrodes under nembutal narcosis (40 mg/kg) were implanted strictly symmetrically into the bearing zone of the temporal cortex of the right and left hemispheres on its lateral surface, whereas the indifferent electrode was secured to the nasal bones of a rabbit's skull. The acoustic irritation was applied through earphones. As the acoustic irritation a sound click caused by a square-shaped pulse from an electronic stimulator with a frequency of 0.1-0.2 Hz was used; the click intensity was adjusted within the range of from 5 to 80 Db. The amplification of the taken-off biopotentials was effected on an electroencephalograph; the induced potentials were obtained by means of an analyzer. 100 experiments on 20 animals were thus conducted; the interval between experiments on one animal was 7 days. The amplitude and form of the induced potential were determined. The asymmetry factor (Kas) was calculated by the formula: [formula] Ar --amplitude of the induced potential of the […] hemisphere, μV;
(§5) A1 --amplitude of the induced potential of the left hemisphere.
(§6) The test preparations were administered hypodermally in the form of 0.5-1.5% aqueous solutions 20 minutes before the beginning of the measurements.

[4] = test system: learning ability of rats in a shuttle chamber; test: Active avoidance learning in a shuttle chamber, rats; format: in vivo, rat; details: rats
Source text: as §1, §2, §3

[5] = test system: rabbit's brain hemispheres; test: Amplitude of induced potential in brain hemispheres (acoustic irritation); format: in vivo; details: rabbits
Procedure: as §4, §5, §6

[6] = hypodermally 1 mg/kg, 12 day (retention)
[7] = hypodermally 3 mg/kg, 12 day (retention)
[8] = hypodermally 30 mg/kg, 12 day (retention)
[9] = hypodermally 100 mg/kg, 1st day
[10] = hypodermally 100 mg/kg, 12 day (retention)
[11] = hypodermally 300 mg/kg, 1st day
[12] = hypodermally 300 mg/kg, 12 day (retention)
[13] = per os 300 mg/kg, 12 day (retention)
[14] = hypodermally 0.03 mg/kg, 1st day
[15] = hypodermally 0.03 mg/kg, 12 day (retention)
[16] = hypodermally 0.1 mg/kg, 1st day
[17] = hypodermally 0.1 mg/kg, 12 day (retention)

## Nc1ccncc1 [4-aminopyridine]
[1]; hypodermally 2 mg/kg
  % of knowledge retention: 40.9%
  Number of combinations till appearance of "learning criterion", I teaching: 32.5 ± 2.8
  Number of combinations till appearance of "learning criterion", II-checking of retention of knowledge: 19.2 ± 1.7
  Number of untaught animals in the group: 11/20
[2]
  retention of the knowledge of active avoidance (in words): does not affect the retention of the knowledge of active avoidance
  teaching (in words): facilitates teaching
[2]; hypodermally 1 mg/kg, 1st day
  % of avoidance reactions, group I: 17%
  % of avoidance reactions, group II: 21%
  % of avoidance reactions, group III: 38%
  % of avoidance reactions, group IV: 51%
  % of avoidance reactions, group V: 55%
  % of avoidance reactions, group VI: 60%
[2]; [6]
  % of avoidance reactions, group I: 48%
  % of avoidance reactions, group II: 70%
  % of avoidance reactions, group III: 72%
  % of avoidance reactions, group IV: 71%
  % of avoidance reactions, group V: 70%
  % of avoidance reactions, group VI: 75%
[2]; hypodermally 3 mg/kg, 1st day
  % of avoidance reactions, group I: 20%
  % of avoidance reactions, group II: 30%
  % of avoidance reactions, group III: 54%
  % of avoidance reactions, group IV: 61%
  % of avoidance reactions, group V: 79%
  % of avoidance reactions, group VI: 82%
[2]; [7]
  % of avoidance reactions, group I: 46%
  % of avoidance reactions, group II: 73%
  % of avoidance reactions, group III: 74%
  % of avoidance reactions, group IV: 74%
  % of avoidance reactions, group V: 80%
  % of avoidance reactions, group VI: 80%
[3]
  asymmetry factor (in words): did not change or reduced the factor of asymmetry
[3]; hypodermally 2 mg/kg, control 0.26 ± 0.06
  Asymmetry factor, Preparation: 0.12 ± 0.02
[4]; hypodermally 2 mg/kg
  Number of combinations to reach the "learning criterion" in II teaching series (after 7 days): 7.4 ± 1.2
  Number of combinations to reach the "learning criterion" in the I teaching series: 17.8 ± 1.2
  Number of non-taught animals in the group: 0/20
  Percentage knowledge retention: 60%
[5]
  amplitude of induced potentials (in words): increased amplitude of the induced potential
[5]; hypodermally 2 mg/kg
  Change of amplitude of induced potential, % of the control, left hemisphere: 140%
  Change of amplitude of induced potential, % of the control, right hemisphere: 175%
  Mean value of amplitude of induced potential, %: 160%

## CC(C)(CO)[C@@H](O)C(=O)NCCCC(=O)O [Calcium homopantothenate, calcium salt of homopantothenic acid]
[2]; 100 mg/kg
  learning (in words): improving effect on learning only in a high dose
[2]; hypodermal vs per os
  effect of hypodermal vs per os administration (in words): substantially more pronounced effect than its per os administration
[2]; hypodermally 30 mg/kg, 1st day
  % of avoidance reactions, group I: 21%
  % of avoidance reactions, group II: 23%
  % of avoidance reactions, group III: 40%
  % of avoidance reactions, group IV: 55%
  % of avoidance reactions, group V: 58%
  % of avoidance reactions, group VI: 60%
[2]; [8]
  % of avoidance reactions, group I: 55%
  % of avoidance reactions, group II: 80%
  % of avoidance reactions, group III: 82%
  % of avoidance reactions, group IV: 85%
  % of avoidance reactions, group V: 84%
  % of avoidance reactions, group VI: 88%
[2]; [9]
  % of avoidance reactions, group I: 20%
  % of avoidance reactions, group II: 31%
  % of avoidance reactions, group III: 40%
  % of avoidance reactions, group IV: 55%
  % of avoidance reactions, group V: 58%
  % of avoidance reactions, group VI: 60%
[2]; [10]
  % of avoidance reactions, group I: 60%
  % of avoidance reactions, group II: 90%
  % of avoidance reactions, group III: 90%
  % of avoidance reactions, group IV: 89%
  % of avoidance reactions, group V: 90%
  % of avoidance reactions, group VI: 88%
[2]; [11]
  % of avoidance reactions, group I: 21%
  % of avoidance reactions, group II: 32%
  % of avoidance reactions, group III: 40%
  % of avoidance reactions, group IV: 50%
  % of avoidance reactions, group V: 51%
  % of avoidance reactions, group VI: 55%
[2]; [12]
  % of avoidance reactions, group I: 53%
  % of avoidance reactions, group II: 75%
  % of avoidance reactions, group III: 76%
  % of avoidance reactions, group IV: 76%
  % of avoidance reactions, group V: 74%
  % of avoidance reactions, group VI: 74%
[2]; per os 300 mg/kg, 1st day
  % of avoidance reactions, group I: 21%
  % of avoidance reactions, group II: 22%
  % of avoidance reactions, group III: 32%
  % of avoidance reactions, group IV: 42%
  % of avoidance reactions, group V: 43%
  % of avoidance reactions, group VI: 51%
[2]; [13]
  % of avoidance reactions, group I: 50%
  % of avoidance reactions, group II: 72%
  % of avoidance reactions, group III: 73%
  % of avoidance reactions, group IV: 78%
  % of avoidance reactions, group V: 77%
  % of avoidance reactions, group VI: 80%

## COc1ccc2c3c1O[C@H]1C[C@@H](O)C=C[C@@]31CCN(C)C2 [Galantamine]
[3]; hypodermally 3 mg/kg, control 0.26 ± 0.03
  Asymmetry factor, Preparation: 0.19 ± 0.03

## CNC(=O)Oc1ccc2c(c1)[C@]1(C)CCN(C)[C@@H]1N2C [Physostigmine, physostigmine]
[1]; hypodermally 0.04 mg/kg
  % of knowledge retention: 10%
  Number of combinations till appearance of "learning criterion", I teaching: 46 ± 3.1
  Number of combinations till appearance of "learning criterion", II-checking of retention of knowledge: 31.4 ± 1.8
  Number of untaught animals in the group: 12/20
[2]; 0.03 mg/kg
  teaching of animals (in words): slightly improves
[2]; 0.1 mg/kg
  teaching of animals (in words): impairs teaching of animals
[2]; [14]
  % of avoidance reactions, group I: 20%
  % of avoidance reactions, group II: 21%
  % of avoidance reactions, group III: 26%
  % of avoidance reactions, group IV: 35%
  % of avoidance reactions, group V: 49%
  % of avoidance reactions, group VI: 57%
[2]; [15]
  % of avoidance reactions, group I: 50%
  % of avoidance reactions, group II: 80%
  % of avoidance reactions, group III: 83%
  % of avoidance reactions, group IV: 87%
  % of avoidance reactions, group V: 90%
  % of avoidance reactions, group VI: 89%
[2]; [16]
  % of avoidance reactions, group I: 18%
  % of avoidance reactions, group II: 4%
  % of avoidance reactions, group III: 7%
  % of avoidance reactions, group IV: 18%
  % of avoidance reactions, group V: 23%
  % of avoidance reactions, group VI: 38%
[2]; [17]
  % of avoidance reactions, group I: 39%
  % of avoidance reactions, group II: 60%
  % of avoidance reactions, group III: 70%
  % of avoidance reactions, group IV: 70%
  % of avoidance reactions, group V: 71%
  % of avoidance reactions, group VI: 70%
[3]
  asymmetry factor (in words): did not change or reduced the factor of asymmetry
[3]; hypodermally 0.04 mg/kg, control 0.22 ± 0.01
  Asymmetry factor, Preparation: 0.11 ± 0.01
[4]; hypodermally 0.04 mg/kg
  Number of combinations to reach the "learning criterion" in II teaching series (after 7 days): 6.1 ± 0.9
  Number of combinations to reach the "learning criterion" in the I teaching series: 21.9 ± 2.5
  Number of non-taught animals in the group: 1/20
  Percentage knowledge retention: 72%
